Entries after “also recorded” stand apart in the source; their conditions may differ.
Key:
HepG2 cells = test: Cell viability with crystal violet; assay type: cell-based; conditions: 1 and 25 µM, 24 h
Experimental: Subsequently, we evaluated the same compounds in a HepG2 insulin‐resistant model.
A 96‐well plate was seeded with 3,000 cells per well and incubated for 24 h. Afterward, the cells were treated with test compounds at various concentrations for 24 h. After incubation, the media was removed, and 100 µL of 1% glutaraldehyde was added for 15 min. Afterward, the liquid was removed, and 50 µL of 0.5% crystal violet (dissolved in 25% methanol) was added for 30 min. The crystal violet staining solution was removed, and the plate was thoroughly washed with tap water. The precipitate was dissolved in a 10% acetic acid solution and mixed for 15 min. The absorbance was then measured at 590 nm using a plate reader (xMark Microplate Spectrophotometer—Bio‐Rad).
Figure S59. Cell viability assessment by crystal violet staining. HepG2 cell viability was evaluated
after treatment with the respective compounds at concentrations of 1 and 25 µM for 24 hours. Bar
graphs represent mean ± SEM.

hPTP1B1–285 = biological target: T1, hPTP1B1–285 (Homo sapiens, UniProt P18031); test: PTP1B activity assay, short form hPTP1B1–285 (p‐NPP); assay type: biochemical; conditions: ± S.D; p‐NPP substrate, 15 min at 37 °C
T1 construct: hPTP1B1–285 (the short form with an N‐terminal catalytic domain)
T1 sequence (P18031 1-285): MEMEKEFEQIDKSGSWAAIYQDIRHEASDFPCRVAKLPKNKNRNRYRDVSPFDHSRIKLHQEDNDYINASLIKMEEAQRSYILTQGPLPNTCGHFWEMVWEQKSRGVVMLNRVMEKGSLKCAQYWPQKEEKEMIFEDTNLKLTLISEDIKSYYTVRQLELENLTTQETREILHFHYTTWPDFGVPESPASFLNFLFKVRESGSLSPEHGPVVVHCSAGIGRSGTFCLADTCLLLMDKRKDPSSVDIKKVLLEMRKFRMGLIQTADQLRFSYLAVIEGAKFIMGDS
Experimental: The inhibitory activity of PTP1B was assessed using two enzyme variants: hPTP1B1–285 (the short form with an N‐terminal catalytic domain) and hPTP1B1–400 (the long form with an intrinsically disordered C‐terminal regulatory domain). […] According to Coronel‐Tovar et al., the disordered region of the C‐terminal domain plays a crucial role in modulating PTP1B enzymatic activity.^[ [30] ^] […] Different concentrations of the compounds were evaluated to determine their IC50 values (Table 1 ).
To do so, these terpenoids were tested against hPTP1B1–285.
Recombinant human protein tyrosine phosphatase 1B, consisting of 400 and 285 amino acid residues, was used.^[ [35] ^] […] Aliquots of 0–10 µL of the test compounds (triplicate) were taken and incubated for 15 min at 37 °C with 85 µL of Tris buffer solution (50 mM, pH 6.8) containing PTP1B enzyme and 5 µL of p‐nitrophenyl phosphate substrate (p‐NPP, 10 mM). Absorbance was then measured at a wavelength of 405 nm. The inhibitory activity was determined according to Equation (1). (1) % PTP1B=(A405b/A405c)×100 where % PTP1B: Is the percentage of inhibition. A 405c: Is the corrected absorbance of the blank (A 405initial–A 405final). A 405b: Is the corrected absorbance of the compounds (A 405control–A 405compound).

**Q.** With CC1(C(=O)O)CCC2(C)CCC3(C)C(=CC(=O)C4C5(C)Cc6c([nH]c7ccc(C(F)(F)F)cc67)C(C)(C)C5CCC43C)C2C1 (centres unmarked) [Compound 3c] as the compound, how does the HepG2 cell viability (HepG2 cells) read?
**A.** No significant differences; also recorded: did not compromise HepG2 cell viability

**Q.** What about the IC50 (hPTP1B1–285) of the same compound?
**A.** 14.9 ± 0.95 µM

— PMC12640663 (Chemmedchem, 2025)
